Laboratory results from patent publication US20240180876A1, “COMPOSITION FOR INCREASING RED BLOOD CELLS AND/OR HEMOGLOBIN” (SUNTORY HOLDINGS LIMITED, priority 2021, published 2024).

Legend:
[1] = placebo-controlled, randomized, double-blind, parallel-group human study of red blood cell count, hemoglobin concentration and blood taurine level; format: in vivo; conditions: male and female adults, one capsule with 20 mg L-ergothioneine per day for four weeks, pre-testing to week 4, versus control food group
Method: In order to evaluate the influence of supplements containing ergothioneine on the red blood cell count in the blood, blood hemoglobin concentration, and blood taurine level, a placebo-controlled, randomized, double-blind, parallel-group study was conducted on subjects including male and female adults (46 subjects in a test food group; 46 subjects in a control food group; 92 subjects in total). In this study, one capsule containing 20 mg ergothioneine (test food) or one capsule not containing ergothioneine (control food) was fed per day for four weeks. The red blood cell count in the blood, blood hemoglobin concentration, and blood taurine level of each subject were measured for pre-testing before starting the study (before starting ingestion of the test food or control food). After ingestion of the test food or control food for four weeks, the red blood cell count in the blood, blood hemoglobin concentration, and blood taurine level of each subject were measured again (testing on week 4). The red blood cell count in the blood and blood hemoglobin concentration were measured by known methods. […] Specifically, the amount of change in the test food group at the time of testing on week 4 was determined by subtracting the measurements (average) of the test food group at the time of pre-testing from the measurements (average) of the test food group at the time of testing on week 4. Similarly, the amount of change in the control food group at the time of testing on week 4 was determined by subtracting the measurements (average) at the time of pre-testing from the measurements (average) at the time of testing on week 4. […]

[2] = mice orally administered, versus mice not administered; cited from earlier work

## C[N+](C)(C)[C@@H](Cc1c[nH]c(=S)[nH]1)C(=O)[O-] [L-ergothioneine]
[1]
  change in blood hemoglobin concentration: significantly increased
  change in blood taurine level (CE-TOF-MS): significantly increased
  change in red blood cell count in the blood: significantly increased
[2]
  peritesticular fat weight: lower
  triglyceride (neutral fat) level in plasma: lower
